Source: article PMC11434080, “Acetylation of Oleanolic Acid Dimers as a Method of Synthesis of Powerful Cytotoxic Agents” (Molecules, 2024)
“Also recorded” adds a separate entry of the source. Read-outs that look alike come from different tables or passages of the source.

How the values were obtained:
SKBR-3 = test: MTT assay, SKBR-3; assay type: cell-based, human; details: for IC50: SKBR-3 human breast adenocarcinoma, value (SD); for SKBR-3 SI: Selectivity Index = IC50 HDF / IC50 SKBR-3
Method: (§1) The cytotoxic activity of oleanolic acid (mother compound, 1, Figure 2) and its 14 derivatives (3a–3n, Figure 2) was tested in vitro using the standard MTT method based on viability assay, e.g., [44] against carcinoma cell lines: SKBR-3, SKOV-3, PC-3, U-87, and one normal cell line: HDF.
(§2) Human cancer cells: SKBR-3 and SKOV-3 were cultured in McCoy’s Modified Medium; PC-3 was cultured in an F-12K medium; U-87 was cultured in EMEM medium; HDF was cultured in Fibroblast Basal Medium. Each medium was supplemented with 10% fetal bovine serum, 1% L- glutamine, and 1% penicillin/streptomycin solution. The cell lines were kept in an incubator at 37 °C. All the cell lines and mediums were obtained from the American Type Culture Collection (ATCC) supplied by LGC-Standards (Lomianki, Poland).
(§3) The MTT assay was conducted as described earlier, e.g., [44]. In short, this method is based on the reaction between mitochondria enzymes (dehydrogenases) of tested cell lines and 3-(4,5-dimethylthiazol-2-yl)-2,5-diphenyltetrazolium bromide (MTT). The final product of this reaction gives violet formazan crystals. The number of live cells is proportional to the amount of formazan and is represented by the violet dye reagent. The details of the experiments are given in [44].

DPPH antioxidant assay = details: for DPPH activity (in words): Figure 3
Source text: (§4) The results of the antioxidant activity of oleanolic acid (1) and Acetylated Oleanolic Acid Dimers (AcOADs) 3a–3n evaluated with CUPRAC and DPPH assays are given in Figure 3. The results are presented as % inhibition of the copper(II) ions and Trolox equivalent (blue bars) calculated from the standard curve, presented in the Supplementary Materials (Supplementary Materials S02, Figure S1) and as % inhibition of the DPPH radical and Trolox equivalent (pink bars), calculated from the standard curve presented in the Supplementary Materials (Supplementary Materials S02, Figure S2).
(§5) The CUPRAC reagent (7.5 mM ethanolic 96% neocuproine solution, 10 mM CuCl2 × H2O solution, and an ammonium acetate buffer of pH 7.0) and DPPH reagent (2,2-diphenyl-1-picrylhydrazyl 0.2 mM solution) were applied.
(§6) The DPPH assay relies on the ability of an antioxidant to donate a hydrogen atom or an electron to the stable DPPH radical, resulting in its reduction and subsequent color change. In contrast, the CUPRAC method measures the reducing power of a sample by quantifying its ability to convert the Cu-neocuproine reagent complex into the Cu(I) form. The results are presented as % inhibition of the copper(II) ions and Trolox equivalent (blue bars) calculated from the standard curve (Supplementary Materails S02, Figure S1) and as % inhibition of the DPPH radical and Trolox equivalent (pink bars), calculated from the standard curve (Supplementary Materials S02, Figure S2). The details of the experiments are given in [46].

PC-3 = test: MTT assay, PC-3; assay type: cell-based, human; details: for IC50: value (SD); for B SI: Selectivity Index = IC50 HDF / IC50 of PC-3
Method: as §1, §2, §3

SKOV-3 = test: MTT assay, SKOV-3; assay type: cell-based, human; details: for IC50: SKOV-3 human ovarian cystadenocarcinoma, value (SD); for SKOV-3 SI: Selectivity Index = IC50 HDF / IC50 SKOV-3
Method: as §1, §2, §3

[1] = tested on: SKBR-3, SKOV-3, PC-3, and U-87 cancer cell lines; test: MTT assay, four cancer cell lines taken together; assay type: cell-based, human; details: for IC50: MTT, across SKBR-3, SKOV-3, PC-3, U-87; for Selectivity Index value: IC50 HDF / IC50 cancer cell line, across the four cancer lines; for level of cytotoxic activity relative to oleanolic acid (1): four cancer cell lines, times more active than oleanolic acid (1)
Method: as §1, §2, §3

HDF = test: MTT assay, HDF normal cell line; assay type: cell-based; details: Homo sapiens, value (SD)
Method: as §1, §2, §3

U-87 = test: MTT assay, U-87; assay type: cell-based, human; details: for U-87 SI: Selectivity Index = IC50 HDF / IC50 U-87; for IC50: U-87 MG, MTT assay, U-87 human glioblastoma, value (SD)
Method: as §1, §2, §3

CUPRAC antioxidant assay = test: CUPRAC antioxidant assay
Source text: as §4, §5, §6

[2] = MTT assay, PC-3 human prostate carcinoma, read-out: B IC50 (SD)

SMILES	IC50 (SKBR-3; SK-BR-3, MTT assay) [µM]	SKBR-3 SI (SKBR-3)	IC50 (PC-3; [2]) [µM]	B SI (PC-3)	IC50 (SKOV-3; SK-OV-3, MTT assay) [µM]	SKOV-3 SI (SKOV-3)	IC50 ([1]; Homo sapiens) [µM]	IC50 (HDF) [µM]	U-87 SI (U-87)	IC50 (U-87) [µM]	Selectivity Index value [1]	also measured
CC(=O)OC1CCC2(C)C(CCC3(C)C2CC=C2C4CC(C)(C)CCC4(C(=O)OCCCCCCCCCOC(=O)C45CCC(C)(C)CC4C4=CCC6C7(C)CCC(OC(C)=O)C(C)(C)C7CCC6(C)C4(C)CC5)CCC23C)C1(C)C (stereo not shown) [Compound 3k]	2.61	0.74	2.45	0.79	2.66	0.73	~2	1.94	0.92	2.1		DPPH activity (in words) (DPPH antioxidant assay): higher antioxidant activity than OA
CC1(C)CC[C@]2(C(=O)O)CC[C@]3(C)C(=CC[C@@H]4[C@@]5(C)CC[C@H](O)C(C)(C)[C@@H]5CC[C@]43C)[C@@H]2C1 [Compound 1, oleanolic acid]		1.27	18.6	1.33		1.32		24.9	1.37	18.2		DPPH antioxidant activity (DPPH antioxidant assay): 0.01907 ± 0.0006506 Trolox equivalents; CUPRAC antioxidant activity (CUPRAC antioxidant assay): 0.05474 ± 0.00171 Trolox equivalents
CC(=O)OC1CCC2(C)C(CCC3(C)C2CC=C2C4CC(C)(C)CCC4(C(=O)OCCCCCCCOC(=O)C45CCC(C)(C)CC4C4=CCC6C7(C)CCC(OC(C)=O)C(C)(C)C7CCC6(C)C4(C)CC5)CCC23C)C1(C)C (stereo not shown) [Compound 3i]	2	0.92	1.9	0.97	1.93	0.96	~2	1.85	0.93	1.98	lower than 1	IC50 [1]: ≤ 2 µM
CC(=O)OC1CCC2(C)C(CCC3(C)C2CC=C2C4CC(C)(C)CCC4(C(=O)OCCCCOC(=O)C45CCC(C)(C)CC4C4=CCC6C7(C)CCC(OC(C)=O)C(C)(C)C7CCC6(C)C4(C)CC5)CCC23C)C1(C)C (stereo not shown) [Compound 3d]	3.03	1.58	3.59	1.33	2.89	1.65	2.5 to 4.5	4.78	1.35	3.54	higher than 1.00	
CC(=O)OC1CCC2(C)C(CCC3(C)C2CC=C2C4CC(C)(C)CCC4(C(=O)OCC=CCOC(=O)C45CCC(C)(C)CC4C4=CCC6C7(C)CCC(OC(C)=O)C(C)(C)C7CCC6(C)C4(C)CC5)CCC23C)C1(C)C (stereo not shown) [Compound 3f]		0.57		0.60		0.58	4.65 to 7.06		0.59		about 0.5	IC50 (SKBR-3; Homo sapiens, SK-BR-3, MTT assay): 7.06 µM; IC50 (PC-3; Homo sapiens, PC-3, read-out: B IC50 (SD), MTT assay, PC-3 human prostate carcinoma): 6.7 µM; IC50 (SKOV-3; Homo sapiens, SK-OV-3, MTT assay): 6.92 µM; level of cytotoxic activity relative to oleanolic acid (1) [1]: approximately 3 times; IC50 (HDF; HDF): 4.02 µM; IC50 (U-87; Homo sapiens): 6.8 µM
CC(=O)OC1CCC2(C)C(CCC3(C)C2CC=C2C4CC(C)(C)CCC4(C(=O)OCCCCCOC(=O)C45CCC(C)(C)CC4C4=CCC6C7(C)CCC(OC(C)=O)C(C)(C)C7CCC6(C)C4(C)CC5)CCC23C)C1(C)C (stereo not shown) [Compound 3g]	4.65	1.22	4.1	1.38	4.23	1.34	2.5 to 4.5	5.66	1.38	4.09	higher than 1.00	
CC(=O)OC1CCC2(C)C(CCC3(C)C2CC=C2C4CC(C)(C)CCC4(C(=O)OCCCOC(=O)C45CCC(C)(C)CC4C4=CCC6C7(C)CCC(OC(C)=O)C(C)(C)C7CCC6(C)C4(C)CC5)CCC23C)C1(C)C (stereo not shown) [Compound 3c]	3.82	0.80	2.94	1.04	3.15	0.97	2.5 to 4.5	3.07	0.99	3.11	lower than 1	
CC(=O)OC1CCC2(C)C(CCC3(C)C2CC=C2C4CC(C)(C)CCC4(C(=O)OCCCCCCOC(=O)C45CCC(C)(C)CC4C4=CCC6C7(C)CCC(OC(C)=O)C(C)(C)C7CCC6(C)C4(C)CC5)CCC23C)C1(C)C (stereo not shown) [Compound 3h]	5.25	1.30	5.13	1.33	4.72	1.45	4.65 to 7.06	6.85	1.47	4.65	higher than 1.00	level of cytotoxic activity relative to oleanolic acid (1) [1]: approximately 3 times
CC(=O)OC1CCC2(C)C(CCC3(C)C2CC=C2C4CC(C)(C)CCC4(C(=O)OCCCCCCCCCCOC(=O)C45CCC(C)(C)CC4C4=CCC6C7(C)CCC(OC(C)=O)C(C)(C)C7CCC6(C)C4(C)CC5)CCC23C)C1(C)C (stereo not shown) [Compound 3l]	5.91	0.61	5.95	0.61	5.95	0.61	4.65 to 7.06	3.62	0.66	5.47		DPPH activity (in words) (DPPH antioxidant assay): higher antioxidant activity than OA; also recorded: highest activity; also recorded: extremely high DPPH activity; level of cytotoxic activity relative to oleanolic acid (1) [1]: approximately 3 times
CC(=O)OC1CCC2(C)C(CCC3(C)C2CC=C2C4CC(C)(C)CCC4(C(=O)OCC=CCOC(=O)C45CCC(C)(C)CC4C4=CCC6C7(C)CCC(OC(C)=O)C(C)(C)C7CCC6(C)C4(C)CC5)CCC23C)C1(C)C (stereo not shown) [Compound 3e]	3.07	2.17	3.35	1.99	2.95	2.26	2.5 to 4.5	6.66	1.91	3.48		CUPRAC activity (in words) (CUPRAC antioxidant assay; Figure 3): highest CUPRAC activity
CC1(C)CCC2(C(=O)OCCCCCCCCCCCCOC(=O)C34CCC(C)(C)CC3C3=CCC5C6(C)CCC(O)C(C)(C)C6CCC5(C)C3(C)CC4)CCC3(C)C(=CCC4C5(C)CCC(O)C(C)(C)C5CCC43C)C2C1 (stereo not shown) [Compound 2n, reference compound]											higher than 1.00	
CC(=O)OC1CCC2(C)C(CCC3(C)C2CC=C2C4CC(C)(C)CCC4(C(=O)OCCCCCCCCOC(=O)C45CCC(C)(C)CC4C4=CCC6C7(C)CCC(OC(C)=O)C(C)(C)C7CCC6(C)C4(C)CC5)CCC23C)C1(C)C (stereo not shown) [Compound 3j]	2.77	2.31	2.72	2.32	2.81	2.28	2.5 to 4.5	6.4	2.32	2.76		DPPH activity (in words) (DPPH antioxidant assay): higher antioxidant activity than OA
